Tests used:
histamine H1 -receptors = molecular target: T1, histamine H1 -receptors (Cavia porcellus, UniProt P31389); assay: in vitro histamine H1-antagonism on isolated guinea pig ileum; details: cumulative concentration/action curves (van Rossum), read-out: H1 -antagonism ileum -log KB (converted)
T1 construct: isolated guinea pig ileum (H1); from tissue; host or cells: isolated guinea pig ileum
Description: (§1) The compounds of formula I according to the invention are distinguished by a novel overall pharmacological activity that has not been described hitherto. […] Suitable for differentiating the two types of action are, for example, in vitro tests on isolated spontaneously beating guinea pig right atrium (H2) and on isolated guinea pig ileum (H1) (Black, J. W.; Duncan, W. A. M.; Durant, G. J., Ganellin, C. R.; Parsons, M. E. (1972), "Definition and Antagonism of Histamine H2 -receptors", Nature 236, 385-390). The concentration/action curves for determining the pharmacological parameters (-log KB) are recorded using a cumulative technique according to van Rossum, J. M. (1963), "Cumulative Dose-Response Curves. II. Technique for the Making of Dose-Response Curves in Isolated Organs and the Evaluation of Drug Parameters", Arch. Int. Pharmacodyn. Ther. 143, 299-307.
(§2) (determined from isolated guinea pig ileum and atrium, […]

histamine H2 -receptors = molecular target: T2, histamine H2 -receptors (Cavia porcellus, UniProt P47747); assay: in vitro histamine H2-antagonism on isolated spontaneously beating guinea pig right atrium; details: cumulative concentration/action curves (van Rossum), read-out: H2 -antagonism atrium -log KB (converted)
T2 construct: isolated spontaneously beating guinea pig right atrium (H2); from tissue; host or cells: isolated spontaneously beating guinea pig right atrium
Description: as §1, §2

T2 sequence (P47747 whole entry): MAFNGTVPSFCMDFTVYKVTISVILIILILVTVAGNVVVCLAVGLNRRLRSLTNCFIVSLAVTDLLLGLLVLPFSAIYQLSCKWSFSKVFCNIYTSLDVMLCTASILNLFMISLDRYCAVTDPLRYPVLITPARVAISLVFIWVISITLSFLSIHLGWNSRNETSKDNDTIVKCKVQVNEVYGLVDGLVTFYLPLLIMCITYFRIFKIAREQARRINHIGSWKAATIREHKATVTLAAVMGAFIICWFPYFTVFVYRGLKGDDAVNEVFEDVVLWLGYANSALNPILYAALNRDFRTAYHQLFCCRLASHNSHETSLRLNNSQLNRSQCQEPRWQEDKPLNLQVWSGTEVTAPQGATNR
T1 sequence (P31389 whole entry): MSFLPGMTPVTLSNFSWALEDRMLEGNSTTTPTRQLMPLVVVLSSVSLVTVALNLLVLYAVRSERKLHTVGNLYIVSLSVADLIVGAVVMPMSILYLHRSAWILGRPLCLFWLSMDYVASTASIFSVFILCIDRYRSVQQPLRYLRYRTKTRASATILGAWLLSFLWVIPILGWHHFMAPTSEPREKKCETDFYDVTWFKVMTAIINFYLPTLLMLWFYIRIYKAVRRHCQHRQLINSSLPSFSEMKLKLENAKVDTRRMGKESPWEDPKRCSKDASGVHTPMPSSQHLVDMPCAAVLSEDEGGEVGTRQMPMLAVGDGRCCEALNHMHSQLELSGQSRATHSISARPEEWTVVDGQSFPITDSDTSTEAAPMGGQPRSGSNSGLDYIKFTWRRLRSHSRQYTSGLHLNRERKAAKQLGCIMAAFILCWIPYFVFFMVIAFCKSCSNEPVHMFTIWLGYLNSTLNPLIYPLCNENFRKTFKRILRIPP

Structure (SMILES): CN(CCCCCCNC(=NC#N)NCCSCc1csc(N=C(N)N)n1)CCN(Cc1ccc(F)cc1)c1ccccn1 [Example 84]
- Kb (histamine H1 -receptors): 3.63 nM
- Kb (histamine H2 -receptors): 302 nM

Structure (SMILES): CN(CCCCCCCNC(=NCCSCc1csc(NC(=N)N)n1)NC#N)CCN(Cc1ccc(F)cc1)c1ccccn1 [Example 85, N-cyano-N'-[7-[N-[2-[N-(4-fluorobenzyl)-N-(2-pyridyl)amino]ethyl]-N-methylamino]heptyl]-N"-[2-[[(2-guanidino-4-thiazolyl)methyl]thio]ethyl]guanidine]
- Kb (histamine H1 -receptors): 7.08 nM
- Kb (histamine H2 -receptors): 95.5 nM

Structure (SMILES): COc1ccc(CN(CCN(C)CCCCNC(=O)NCCSCc2csc(NC(=N)N)n2)c2ccccn2)cc1 [Example 88, N-[2-[[(2-guanidino-4-thiazolyl)methyl]thio]ethyl]-N'-[4-[N-[2-[N-(4-methoxybenzyl)-N-(2-pyridyl)amino]ethyl]-N-methylamino]butyl]urea]
- Kb (histamine H1 -receptors): 1.82 nM
- Kb (histamine H2 -receptors): 219 nM

Structure (SMILES): COc1ccc(CN(CCN(C)CCCCCCNC(=O)NCCSCc2csc(NC(=N)N)n2)c2ccccn2)cc1 [Example 89, N-[2-[[(2-guanidino-4-thiazolyl)methyl]thio]ethyl]-N'-[6-[N-[2-[N-(4-methoxybenzyl)-N-(2-pyridyl)amino]ethyl]-N-methylamino]hexyl]urea]
- Kb (histamine H1 -receptors): 1.74 nM
- Kb (histamine H2 -receptors): 174 nM

Structure (SMILES): CN(CCCCCCNC(=O)NCCSCc1csc(NC(=N)N)n1)CCN(Cc1ccc(F)cc1)c1ccccn1 [Example 94, N-[6-[N-[2-[N-(4-fluorobenzyl)-N-(2-pyridyl)amino]ethyl]-N-methylamino]hexyl]-N'-[2-[[(2-guanidino-4-thiazolyl)methyl]thio]ethyl]urea]
- Kb (histamine H1 -receptors): 1.58 nM
- Kb (histamine H2 -receptors): 141 nM

Structure (SMILES): COc1ccc(CN(CCN(C)CCCCCCNC(=C[N+](=O)[O-])NCCSCc2csc(NC(=N)N)n2)c2ccccn2)cc1 [Example 96, N-[2-[[(2-guanidino-4-thiazolyl)methyl]thio]ethyl]-N'-[6-[N-[2-[N-(4-methoxybenzyl)-N-(2-pyridyl)amino]ethyl]-N-methylamino]hexyl]-2-nitro-1,1-ethenediamine]
- Kb (histamine H1 -receptors): 3.09 nM
- Kb (histamine H2 -receptors): 5.25 nM

Structure (SMILES): CN(C)Cc1ccc(CSCCNC(=O)NCCCCN(C)CCN(Cc2ccc(F)cc2)c2ccccn2)o1 [Example 103, N-[2-[[5-[(dimethylamino)methyl]furfuryl]thio]ethyl]-N'-[4-[N-[2-[N-(4-fluorobenzyl)-N-(2-pyridyl)amino]ethyl]-N-methylamino]butyl]urea]
- Kb (histamine H1 -receptors): 24.5 nM
- Kb (histamine H2 -receptors): 1200 nM

Structure (SMILES): CN(C)Cc1ccc(CSCCNC(=C[N+](=O)[O-])NCCCN(C)CCN(Cc2ccc(F)cc2)c2ccccn2)o1 [Example 104, N-[2-[[5-[(dimethylamino)methyl]furfuryl]thio]ethyl]-N'-[3-[N-[2-[N-(4-fluorobenzyl)-N-(2-pyridyl)amino]ethyl]-N-methylamino]propyl]-2-nitro-1,1-ethenediamine]
- Kb (histamine H1 -receptors): 10.7 nM
- Kb (histamine H2 -receptors): 1350 nM

Structure (SMILES): CC(C1=C(CCN(C)CCCCCCNC(=C[N+](=O)[O-])NCCSCc2csc(N=C(N)N)n2)Cc2ccccc21)c1ccccn1 (stereo not drawn) [Example 105, N-[2-[[(2-guanidino-4-thiazolyl)methyl]thio]ethyl]-N'-[6-[N-methyl-N-[2-[1-(2-pyridyl)ethyl]inden-2-yl]ethylamino]hexyl]-2-nitro-1,1-ethenediamine]
- Kb (histamine H1 -receptors): 36.3 nM
- Kb (histamine H2 -receptors): 28.8 nM
